Tests used:
T-47D = test: Caspase cascade activation assay (N-(Ac-DEVD)-N'-ethoxycarbonyl-R110 fluorogenic substrate) in T-47D cells; assay type: cell-based; details: T-47D human breast cancer cells, 24 h incubation; ratio of net RFU of compound to control
Experimental: (§1) Human breast cancer cell lines T-47D and ZR-75-1 were grown according to media component mixtures designated by American Type Culture Collection +10% FCS (Invitrogen Corporation), in a 5% CO2−95% humidity incubator at 37° C. T-47D and ZR-75-1 cells were maintained at a cell density between 30 and 80% confluency at a cell density of 0.1 to 0.6×10^6 cells/mL. Cells were harvested at 600×g and resuspended at 0.65×10^6 cells/mL into appropriate media +10% FCS. An aliquot of 45 μL of cells was added to a well of a 96-well microtiter plate containing 5 μL of a 10% DMSO in RPMI-1640 media solution containing 0.16 to 10 μM of 4-(3-bromo-4,5-dimethoxyphenyl)-3-cyano-4H-indolo[4,5-b]pyran (Example 1) or other test compound (0.016 to 1 μM final). An aliquot of 45 μL of cells was added to a well of a 96-well microtiter plate containing 5 μL of a 10% DMSO in RPMI-1640 media solution without test compound as the control sample. The samples were mixed by agitation and then incubated at 37° C. for 24 h in a 5% CO2-95% humidity incubator. After incubation, the samples were removed from the incubator and 50 μL of a solution containing 20 μM of N-(Ac-DEVD)-N′-ethoxycarbonyl-R110 (SEQ ID No.:1) fluorogenic substrate (Cytovia, Inc.; U.S. Pat. No. 6,335,429), 20% sucrose (Sigma), 20 mM DTT (Sigma), 200 mM NaCl (Sigma), 40 mM Na PIPES buffer pH 7.2 (Sigma), and 500 μg/mL lysolecithin (Calbiochem) was added. The samples were mixed by agitation and incubated at room temperature. Using a fluorescent plate reader (Model 1420 Wallac Instruments), an initial reading (T=0) was made approximately 1-2 min after addition of the substrate solution, employing excitation at 485 nm and emission at 530 nm, to determine the background fluorescence of the control sample. After the 3 h incubation, the samples were read for fluorescence as above (T=3 h).
(§2) The Relative Fluorescence Unit values (RFU) were used to calculate the sample readings as follows: RFU(T=3h)−Control RFU(T=0)=Net RFU(T=3h)
(§3) The activity of caspase cascade activation was determined by the ratio of the net RFU value for 4-(3-bromo-4,5-dimethoxyphenyl)-3-cyano-4H-indolo[4,5-b]pyran or other test compound to that of control samples. The EC50 (nM) was determined by a sigmoidal dose-response calculation (Prism 2.0, GraphPad Software Inc.).

ZR-75-1 = test: Caspase cascade activation assay (N-(Ac-DEVD)-N'-ethoxycarbonyl-R110 fluorogenic substrate) in ZR-75-1 cells; assay type: cell-based; details: ZR-75-1 human breast cancer cells, 24 h incubation; sigmoidal dose-response; read-out: ZR-75-1 EC50 (nM) (potency)
Experimental: as §1, §2, §3

Row | EC50 (ZR-75-1) [nM] | Structure (SMILES) | T-47D Ratio (caspase activity) (T-47D)
1 | 548 | COc1cc(C2CC(O)Oc3cc(NC(C)=O)ccc32)cc(Br)c1OC (stereo not shown) [Example 27, N-[4-(3-Bromo-4,5-dimethoxyphenyl)-2-hydroxy-chroman-7-yl]-acetamide] | 1.3
2 | 55 | COc1cc(C2CC(O)Oc3c2ccc2[nH]ccc32)cc(Br)c1OC (stereo not shown) [Example 24, 4-(3-Bromo-4,5-dimethoxyphenyl)-2-hydroxy-pyrrolo[2,3-h]chroman] | 2.5

Reference: US7476741B2, “Substituted 4H-chromens, 2H-chromenes, chromans and analogs as activators of caspases and inducers of apoptosis and the use thereof” (Cytovia, Inc., priority 2002, dated 2009)
